Measured values as given in article PMC10712729, “A Phase I Trial of the Dual MET Kinase/OCT-2 Inhibitor OMO-1 in Metastatic Solid Malignancies Including MET Exon 14 Mutated Lung Cancer” (The Oncologist, 2023).
Entries after “also recorded” stand apart in the source; their conditions may differ.

What was measured:
[1] = Pharmacokinetics of OMO-1 in plasma, Module 1 Part A; assay type: in vivo, human
Procedure: (§1) The starting dose was 100 mg BID.
Analysis was performed using PKSolver to define Cmax, trough concentration (Ctrough), AUC∞, AUC0-last, Vd, clearance, elimination half-life (t½), and Tmax of OMO-1.[24] In the paired biopsy analysis, expression of total MET and phosphorylated MET was performed by immunohistochemistry.

METex14-positive NSCLC = assay: Preliminary efficacy by RECIST v1.1, Module 1 Part B cohort 1; assay type: in vivo, human; settings: OMO-1 monotherapy 200 or 250 mg BID
Procedure: as §1
Safety analyses were descriptive.

[2] = tested on: organic cation transporter 2 (OCT-2); set-up: method as in PMID 14576340; settings: cited from earlier work
[3] = Phase I safety and tolerability of OMO-1 monotherapy, Module 1 Part A dose escalation (drug-related TEAEs, DLTs, RP2D)
From the text: This study was part of a modular, first-in-patient, openlabel multicenter study of OMO-1, administered orally, mono-therapy, and in combination with EGFR-TKI, in patients with locally advanced, unresectable, or metastatic solid malignancies (study protocol can be). […] Module 1 (OMO-1 monotherapy) consisted of Part A (dose escalation) and Part B (expansion cohorts). Part A assessed the safety and tolerability of ascending doses of OMO-1 given as monotherapy in unselected patients with locally advanced, unresectable, or metastatic malignancies and determined the recommended phase 2 dose (RP2D). Part B assessed the preliminary efficacy of the RP2D of OMO-1 in patients with METex14-positive NSCLC (cohort 1) and patients with MET amplified NSCLC or patients with other MET positive solid tumors, either METex14 or MET amplification (MET basket; cohort 2). The MET status of the tumor was assessed locally by site-specific guidelines. For MET exon 14 skipping mutations next generation sequencing (NGS) was used and for MET amplifications either NGS or fluorescence in situ hybridization (Supplementary 1). Prior treatment with a MET inhibitor was an exclusion criterion.
OMO-1 was administered orally, twice daily (BID) with a minimal interval of 4-5 h with food in a continuous 21 day/cycle regimen until clinical progression or emergence of significant toxicity. The starting dose was 100 mg BID. The dose was escalated sequentially in cohorts of at least 3 patients using a standard 3 + 3 dose escalation design. […] During the monotherapy dose escalation Module 1 Part A, blood samples were collected for PK analysis throughout the study as per protocol (S1).
The dose-limiting toxicity (DLT) evaluation period was within the first cycle of treatment; although all events beyond this point were also reviewed at the time of dose escalation to ensure an OLED was chosen as RP2D.
Safety analyses were descriptive. With respect to primary objectives and endpoints, no specific hypotheses were tested statistically. The primary focus was on determining the safety profile and RP2D, and the identification of a range of biologically active doses and PK of OMO-1 in patients with cancer. Safety, PK, and PD biomarker data were reviewed on an ongoing basis in line with the cohort progression criteria by the Safety Review Committee (SRC).

FC(F)(c1ccc2ncccc2c1)c1nnc2ccc(-c3ccncc3)nn12 [OMO-1]
plasma exposure as measured by AUC(0-8 h), dose proportionality ([1]; 100 to 400 mg BID): dose-proportional without accumulation
AUC(0-8 h) ([1]; RP2D of 250 mg BID): 5684 ng·h/mL
Cmax ([1]; RP2D of 250 mg BID): 1372 ng/mL
T½ ([1]; oral, patients): 2.5 to 3 h
median Tmax ([1]; range across the dose escalation cohorts, second daily dose 4-5 h after first): 5 to 7.8 h
clinical benefit duration of at least 8 weeks (METex14-positive NSCLC): 5/10
partial response (METex14-positive NSCLC; RECIST v.1.1): No patients; also recorded: no partial response
inhibition of OCT-2 [2]: potent inhibitor
increased blood creatinine, drug-related TEAE ([3]; 100 mg BID cohort): no events
Fatigue, proportion of patients ([3]; 100 mg BID cohort, 1 patient): 20.0%
Decreased appetite, Drug-related TEAEs, All grades ([3]; 100 mg BID n = 5): 1 (20%) n (%)
Dizziness, Drug-related TEAEs, All grades ([3]; 100 mg BID n = 5): 1 (20%) n (%)
Fatigue, Drug-related TEAEs, All grades ([3]; 100 mg BID n = 5): 1 (20%) n (%)
Headache, Drug-related TEAEs, All grades ([3]; 100 mg BID n = 5): 1 (20%) n (%)
Nausea, Drug-related TEAEs, All grades ([3]; 100 mg BID n = 5): 2 (40%) n (%)
Nausea, Drug-related TEAEs, Grade ≥3 ([3]; 100 mg BID n = 5): 1 (20%) n (%)
Nausea, Drug-related TEAEs, SAE ([3]; 100 mg BID n = 5): 1 (20%) n (%)
Total n with AE, Drug-related TEAEs, All grades ([3]; 100 mg BID n = 5): 5 (100%) n (%)
Total n with AE, Drug-related TEAEs, Grade ≥3 ([3]; 100 mg BID n = 5): 2 (40%) n (%)
Total n with AE, Drug-related TEAEs, SAE ([3]; 100 mg BID n = 5): 2 (40%) n (%)
Vomiting, Drug-related TEAEs, All grades ([3]; 100 mg BID n = 5): 1 (20%) n (%)
Vomiting, Drug-related TEAEs, Grade ≥3 ([3]; 100 mg BID n = 5): 1 (20%) n (%)
Vomiting, Drug-related TEAEs, SAE ([3]; 100 mg BID n = 5): 1 (20%) n (%)
Anemia, Drug-related TEAEs, All grades ([3]; 200 mg BID n = 4): 2 (50%) n (%)
Anemia, Drug-related TEAEs, Grade ≥3 ([3]; 200 mg BID n = 4): 1 (25%) n (%)
Blood creatinine ↑, Drug-related TEAEs, All grades ([3]; 200 mg BID n = 4): 3 (75%) n (%)
Chills/ influenza like symptoms, Drug-related TEAEs, All grades ([3]; 200 mg BID n = 4): 1 (25%) n (%)
Chills/ influenza like symptoms, Drug-related TEAEs, SAE ([3]; 200 mg BID n = 4): 1 (25%) n (%)
Decreased appetite, Drug-related TEAEs, All grades ([3]; 200 mg BID n = 4): 1 (25%) n (%)
Diarrhoea, Drug-related TEAEs, All grades ([3]; 200 mg BID n = 4): 2 (50%) n (%)
Dizziness, Drug-related TEAEs, All grades ([3]; 200 mg BID n = 4): 1 (25%) n (%)
Fatigue, Drug-related TEAEs, All grades ([3]; 200 mg BID n = 4): 1 (25%) n (%)
Headache, Drug-related TEAEs, All grades ([3]; 200 mg BID n = 4): 3 (75%) n (%)
Nausea, Drug-related TEAEs, All grades ([3]; 200 mg BID n = 4): 3 (75%) n (%)
Total n with AE, Drug-related TEAEs, All grades ([3]; 200 mg BID n = 4): 4 (100%) n (%)
Total n with AE, Drug-related TEAEs, Grade ≥3 ([3]; 200 mg BID n = 4): 1 (25%) n (%)
Total n with AE, Drug-related TEAEs, SAE ([3]; 200 mg BID n = 4): 1 (25%) n (%)
Vomiting, Drug-related TEAEs, All grades ([3]; 200 mg BID n = 4): 2 (50%) n (%)
Vomiting, Drug-related TEAEs, Grade ≥3 ([3]; 200 mg BID n = 4): 1 (25%) n (%)
diarrhea, all grades ([3]; 250 mg BD): 14%
nausea, all grades ([3]; 250 mg BD): 57%
vomiting, all grades ([3]; 250 mg BD): 43%
Anemia, Drug-related TEAEs, All grades ([3]; 250 mg BID n = 7): 1 (14%) n (%)
Blood creatinine ↑, Drug-related TEAEs, All grades ([3]; 250 mg BID n = 7): 3 (43%) n (%)
Blood creatinine ↑, Drug-related TEAEs, Grade ≥3 ([3]; 250 mg BID n = 7): 1 (14%) n (%)
Decreased appetite, Drug-related TEAEs, All grades ([3]; 250 mg BID n = 7): 1 (14%) n (%)
Diarrhoea, Drug-related TEAEs, All grades ([3]; 250 mg BID n = 7): 1 (14%) n (%)
Dizziness, Drug-related TEAEs, All grades ([3]; 250 mg BID n = 7): 1 (14%) n (%)
Fatigue, Drug-related TEAEs, All grades ([3]; 250 mg BID n = 7): 3 (43%) n (%)
Fatigue, Drug-related TEAEs, Grade ≥3 ([3]; 250 mg BID n = 7): 1 (14%) n (%)
Nausea, Drug-related TEAEs, All grades ([3]; 250 mg BID n = 7): 4 (57%) n (%)
Nausea, Drug-related TEAEs, SAE ([3]; 250 mg BID n = 7): 1 (14%) n (%)
Tachycardia, Drug-related TEAEs, All grades ([3]; 250 mg BID n = 7): 1 (14%) n (%)
Total n with AE, Drug-related TEAEs, All grades ([3]; 250 mg BID n = 7): 7 (100%) n (%)
Total n with AE, Drug-related TEAEs, SAE ([3]; 250 mg BID n = 7): 1 (14%) n (%)
Vomiting, Drug-related TEAEs, All grades ([3]; 250 mg BID n = 7): 3 (43%) n (%)
patients discontinued due to related toxicity ([3]; 350 mg BID and 400 mg BID cohort): 4/8
increased blood creatinine, drug-related TEAE ([3]; 350 mg BID cohort): no events
Chills/ influenza like symptoms, Drug-related TEAEs, All grades ([3]; 350 mg BID n = 5): 1 (20%) n (%)
Decreased appetite, Drug-related TEAEs, All grades ([3]; 350 mg BID n = 5): 1 (20%) n (%)
Dizziness, Drug-related TEAEs, All grades ([3]; 350 mg BID n = 5): 1 (20%) n (%)
Fatigue, Drug-related TEAEs, All grades ([3]; 350 mg BID n = 5): 3 (60%) n (%)
Headache, Drug-related TEAEs, All grades ([3]; 350 mg BID n = 5): 1 (20%) n (%)
Nausea, Drug-related TEAEs, All grades ([3]; 350 mg BID n = 5): 1 (20%) n (%)
Tachycardia, Drug-related TEAEs, All grades ([3]; 350 mg BID n = 5): 1 (20%) n (%)
